Source: ChEMBL document CHEMBL4229381, “New cytokinin derivatives possess UVA and UVB photoprotective effect on human skin cells and prevent oxidative stress” (Eur J Med Chem, 2018)
The source made the active and inactive calls. The rule behind the calls is not given here.

Columns and labels:
[1] = Cytotoxicity in human NHDF cells assessed as cell viability at 7.8 uM after 24 hrs by neutral red uptake assay relative to control; assay type: cell-based; conditions: read-out: Activity
BJ = assay: Cytotoxicity in human BJ cells assessed as reduction in cell viability at 50 uM after 24 hrs by resazurin dye-based fluorescence assay relative to control
[2] = Phototoxicity in human HaCaT cells assessed as cell viability at 7.8 uM preincubated for 60 mins followed by 7.5 J/cm2 UVA irradiation and measured after 24 hrs by neutral red uptake assay relative to control; assay type: cell-based; conditions: read-out: Activity
[3] = Cytotoxicity in human HaCaT cells assessed as cell viability at 3.9 uM after 24 hrs by neutral red uptake assay relative to control; assay type: cell-based; conditions: read-out: Activity
NHDF [4] = assay: Cytoprotection against phototoxicity in human NHDF cells assessed as increase in cell viability at 3.9 uM preincubated for 60 mins followed by 7.5 J/cm2 UVA irradiation and measured after 24 hrs by neutral red uptake assay; assay type: functional, cell-based
[5] = Stability of the compound in pH 4 solution at 10^-4 M after 1 hr by HPLC analysis; assay type: physicochemical; conditions: read-out: Stability
[6] = Phototoxicity in human NHDF cells assessed as cell viability at 125 uM preincubated for 60 mins followed by 5 J/cm2 UVA irradiation and measured after 24 hrs by neutral red uptake assay relative to control; assay type: cell-based; conditions: read-out: Activity
NHDF [7] = assay: Cytoprotection against phototoxicity in human NHDF cells assessed as increase in cell viability at 31.3 uM preincubated for 60 mins followed by 150 mJ/cm2 UVB irradiation and measured after 24 hrs by neutral red uptake assay; assay type: functional, cell-based
Caenorhabditis elegans [8] = assay: Protection against juglone-induced oxidative stress in wild type Caenorhabditis elegans N2 at 100 uM preincubated for 3 days followed by juglone addition and measured after 4 hrs by inverted microscopic analysis; assay type: functional, organism-based
[9] = Cytotoxicity in human NHDF cells assessed as cell viability at 3.9 uM after 24 hrs by neutral red uptake assay relative to control; assay type: cell-based; conditions: read-out: Activity
[10] = Cytotoxicity in human NHDF cells assessed as cell viability at 125 uM after 24 hrs by neutral red uptake assay relative to control; assay type: cell-based; conditions: read-out: Activity
[11] = Phototoxicity in human NHDF cells assessed as cell viability at 7.8 uM preincubated for 60 mins followed by 5 J/cm2 UVA irradiation and measured after 24 hrs by neutral red uptake assay relative to control; assay type: cell-based; conditions: read-out: Activity
[12] = Stability of the compound in pH 3 solution at 10^-4 M after 24 hrs by HPLC analysis; assay type: physicochemical; conditions: read-out: Stability
[13] = Stability of the compound in pH 6 solution at 10^-4 M after 24 hrs by HPLC analysis; assay type: physicochemical; conditions: read-out: Stability
[14] = Phototoxicity in human HaCaT cells assessed as cell viability at 15.6 uM preincubated for 60 mins followed by 7.5 J/cm2 UVA irradiation and measured after 24 hrs by neutral red uptake assay relative to control; assay type: cell-based; conditions: read-out: Activity
[15] = Phototoxicity in human HaCaT cells assessed as cell viability at 31.3 uM preincubated for 60 mins followed by 7.5 J/cm2 UVA irradiation and measured after 24 hrs by neutral red uptake assay relative to control; assay type: cell-based; conditions: read-out: Activity
Caenorhabditis elegans [16] = assay: Protection against juglone-induced oxidative stress in Caenorhabditis elegans BA17 (fem-1) at 100 uM preincubated for 3 days followed by juglone addition measured every hour for 12 ro 14 hrs by inverted microscopic analysis; assay type: functional, organism-based
NHDF [17] = assay: Potency index, ratio of compound effect to rosmarinic acid effect for cytoprotection against phototoxicity in human NHDF cells assessed as increase in cell viability at 3.9 uM preincubated for 60 mins followed by 7.5 J/cm2 UVA irradiation and measured after 24 hrs by neutral red uptake assay; assay type: functional
HaCaT [18] = assay: Potency index, ratio […] for cytoprotection against phototoxicity in human HaCaT cells assessed as increase in cell viability at 3.9 preincubated for 60 mins followed by 150 mJ/cm2 UVB irradiation and measured after 24 hrs by neutral red uptake assay; assay type: functional
[19] = Cytotoxicity in human NHDF cells assessed as cell viability at 31.3 uM after 24 hrs by neutral red uptake assay relative to control; assay type: cell-based; conditions: read-out: Activity
[20] = Cytotoxicity in human HaCaT cells assessed as cell viability at 62.5 uM after 24 hrs by neutral red uptake assay relative to control; assay type: cell-based; conditions: read-out: Activity
[21] = Stability of the compound in pH 6 solution at 10^-4 M after 1 hr by HPLC analysis; assay type: physicochemical; conditions: read-out: Stability
NHDF [22] = assay: Cytoprotection against phototoxicity in human NHDF cells assessed as increase in cell viability at 3.9 to 31.3 uM preincubated for 60 mins followed by 150 mJ/cm2 UVB irradiation and measured after 24 hrs by neutral red uptake assay; assay type: functional, cell-based
HaCaT [23] = assay: Cytotoxicity in human HaCaT cells assessed as reduction in cell viability at 50 uM after 24 hrs by resazurin dye-based fluorescence assay relative to control
[24] = Stability of the compound in pH 4 solution at 10^-4 M after 24 hrs by HPLC analysis; assay type: physicochemical; conditions: read-out: Stability
HaCaT [25] = assay: Cytoprotection against phototoxicity in human HaCaT cells assessed as increase in cell viability at 3.9 to 31.3 uM preincubated for 60 mins followed by 10 J/cm2 UVA irradiation and measured after 24 hrs by neutral red uptake assay; assay type: functional, cell-based
[26] = Phototoxicity in human NHDF cells assessed as cell viability at 31.3 uM preincubated for 60 mins followed by 5 J/cm2 UVA irradiation and measured after 24 hrs by neutral red uptake assay relative to control; assay type: cell-based; conditions: read-out: Activity
Nicotiana tabacum = assay: Growth promoting activity in tobacco callus assessed as callus weight at 10^-5 mol/L after 4 weeks relative to control; assay type: functional
[27] = Cytotoxicity in human NHDF cells assessed as cell viability at 15.6 uM after 24 hrs by neutral red uptake assay relative to control; assay type: cell-based; conditions: read-out: Activity
[28] = Phototoxicity in human NHDF cells assessed as cell viability at 3.9 uM preincubated for 60 mins followed by 5 J/cm2 UVA irradiation and measured after 24 hrs by neutral red uptake assay relative to control; assay type: cell-based; conditions: read-out: Activity
[29] = Cytotoxicity in human HaCaT cells assessed as cell viability at 125 uM after 24 hrs by neutral red uptake assay relative to control; assay type: cell-based; conditions: read-out: Activity
NHDF [30] = assay: Cytoprotection against phototoxicity in human NHDF cells assessed as increase in cell viability at 3.9 to 31.3 uM preincubated for 60 mins followed by 7.5 J/cm2 UVA irradiation and measured after 24 hrs by neutral red uptake assay; assay type: functional, cell-based
[31] = Phototoxicity in human HaCaT cells assessed as cell viability at 125 uM preincubated for 60 mins followed by 7.5 J/cm2 UVA irradiation and measured after 24 hrs by neutral red uptake assay relative to control; assay type: cell-based; conditions: read-out: Activity
[32] = Phototoxicity in human NHDF cells assessed as cell viability at 62.5 uM preincubated for 60 mins followed by 5 J/cm2 UVA irradiation and measured after 24 hrs by neutral red uptake assay relative to control; assay type: cell-based; conditions: read-out: Activity
HaCaT [33] = assay: Potency index, ratio of compound effect to rosmarinic acid effect for cytoprotection against phototoxicity in human HaCaT cells assessed as increase in cell viability at 3.9 uM preincubated for 60 mins followed by 10 J/cm2 UVA irradiation and measured after 24 hrs by neutral red uptake assay; assay type: functional
[34] = Phototoxicity in human HaCaT cells assessed as cell viability at 62.5 uM preincubated for 60 mins followed by 7.5 J/cm2 UVA irradiation and measured after 24 hrs by neutral red uptake assay relative to control; assay type: cell-based; conditions: read-out: Activity

SMILES: c1csc(CNc2ncnc3c2ncn3C2CCCO2)c1 (stereo unspecified)
- viability at 24 h, 7.8 µM [1]: 103%
- Activity (BJ): < 10%
- viability at 24 h, 7.8 µM [2]: 124%
- viability at 24 h, 3.9 µM [3]: 101%
- Activity (NHDF [4]): Active
- remaining at 1 h, 100 µM [5]: 99.4%
- viability at 24 h, 125 µM [6]: 106%
- Activity (NHDF [7]): Active
- Activity (Caenorhabditis elegans [8]): Active
- viability at 24 h, 3.9 µM [9]: 100%
- viability at 24 h, 125 µM [10]: 108%
- viability at 24 h, 7.8 µM [11]: 102%
- remaining at 24 h, 100 µM [12]: 0.8%
- remaining at 24 h, 100 µM [13]: 100%
- viability at 24 h, 15.6 µM [14]: 121%
- viability at 24 h, 31.3 µM [15]: 128%
- Activity (Caenorhabditis elegans [16]): Active
- Ratio (NHDF [17]): >6
- Ratio (HaCaT [18]): >2
- viability at 24 h, 31.3 µM [19]: 107%
- viability at 24 h, 62.5 µM [20]: 104%
- remaining at 1 h, 100 µM [21]: 100%
- Activity (NHDF [22]): Active
- Activity (HaCaT [23]): < 10%
- remaining at 24 h, 100 µM [24]: 52.1%
- Activity (HaCaT [25]): Active
- viability at 24 h, 31.3 µM [26]: 106%
- Activity (Nicotiana tabacum): 105%
- viability at 24 h, 15.6 µM [27]: 100%
- viability at 24 h, 3.9 µM [28]: 98%
- viability at 24 h, 125 µM [29]: 103%
- Activity (NHDF [30]): Active
- viability at 24 h, 125 µM [31]: 127%
- viability at 24 h, 62.5 µM [32]: 103%
- Ratio (HaCaT [33]): 3
- viability at 24 h, 62.5 µM [34]: 130%
